The test system of assay [1] is W61D (R5X4 dual tropic primary isolate) pseudovirus. In words: Viral entry, Env pseudovirus with luciferase readout: W61D. In kind it is cell-based, HIV-1. Conditions: for N36E on CCR5+ indicator cells. As to the method: (§1) In preliminary experiments we tested the panel of peptides for inhibition of HIV-1 infectivity using a single CXCR4-using T cell line-adapted virus isolate: HIV-1IIIB. Serial dilutions of the peptides were added to the target cells immediately followed by virus. After 5-7 days culture, supernatant was tested for viral p24 activity using a sensitive p24 ELISA. […] These viruses carry a luciferase readout and are competent for a single cycle of replication only. We chose to test Env from […] viruses representing: X4 TCLA virus (HXB2); X4 primary isolate (WHO D clade); R5X4 dual tropic primary isolate (W61D) and R5 primary isolates (JRFL and Bal).

Another assay deals with JRFL (R5) pseudovirus. In words: Viral entry, Env pseudovirus with luciferase readout: JRFL. The assay is classed as cell-based, HIV-1. Conditions: from IC50 data of table 3. As to the method:
as §1

The test system of the next assay is HIV-1 pseudovirus. In words: Timing of peptide addition and inhibition of pseudovirus infection. The assay is classed as cell-based.
In assay [2] the test system is HIV-1. Conditions: for activity compared with T20 and T1249: across clades, Figs 5 and 6; for IC50: read-out: IC50 in hPBMCs, independent assays in hPBMCs (N36E 6, W37Q 5).
Description: The peptides were evaluated against two HIV-1 stains IIIB and BR92/92/021. These two stains were selected in part based on their co-receptor utilization preferences; HIV-1 IIIB utilizes the CXCR4 co-receptor whereas HIV-1 BR92 utilizes CCR5. To test anti-HIV efficacy, fresh Human Peripheral Blood Mononuclear Cells (PBMCs) were obtained from single, normal hepatitis and HIV-1 negative donors. The cells were stimulated by a using CD3+method. Drug testing was performed in a 96 well format in triplicate. Each plate contained control wells (cells+virus), experimental wells (drug+cells+virus) and compound control wells (drug+cells, to monitor cytotoxicity). The read-out for viral infectivity after seven days of infection was based on reverse transcriptase activity of cell free supernatant samples. Drug toxicity was determined in the control well by a standard assay using the tetrazolium compound, which was converted in live cells into a colored formazan product that can readily be monitored on the microtiter plate.
PBMCs were stimulated via the CD3 antigen that is part of the T cell receptor. […] The T cell preparation contains about 50% CD4+cells that are susceptible to HIV-1 infection. Therefore no further separation between CD4+ and CD8+cells is necessary.
The data were obtained according to the following protocol:
Pre-incubate diluted peptides (0 to 50 ug/ml) with virus strain
Add 3 day anti-CD3 stimulated human peripheral blood mononuclear cells (50,000/well)
Incubate 37° C. for 6 days in IL-2 containing media
Test cell-free culture supernatants for reverse transcriptase (RT) activity at day 6
Test cells in cultures for toxicity using an MTS (CellTiter96 Reagent Promega) staining for cell viability
All assay results shown were done in triplicate
Assay [3] relates to HXB2 (X4 TCLA virus) pseudovirus. In words: Viral entry, Env pseudovirus with luciferase readout: HXB2. In kind it is cell-based, HIV-1. Conditions: from IC50 data of table 3. As for the experimental part:
as §1

Assay [4] concerns HIV-1. Conditions: for activity compared with the new analogues of T-20, T-21 and DP219: qualitative comparison. As for the experimental part:
Peptides were tested in vitro for inhibition of early steps in cell-free HIV-1 infection and direct cell-to-cell spread of virus using T-cell line-adapted and primary isolates and recombinant HIV-1 viruses pseudotyped for env using CCR5, CXCR4 or both coreceptors.
Selected de novo designed peptides according to the invention (S291, N36E, W37Q and W371) and the new analogues of T20, T21 and DP219 were evaluated for inhibition of both cell-free HIV-1 infection and of direct cell-to-cell spread using a range of T-cell line-adapted and primary isolates and recombinant HIV-1 pseudotyped for env derived from patient isolates of different clades.

The test system of another assay is HIV-1 IIIB. In kind it is cell-based. The settings on record: lab-adapted HIV-1 IIIB. As for the experimental part:
Both involved the culture of the virus with the peptide or its scrambled form for 1 hr at 37° C., 5% CO2 and then subsequent addition of target cells for 7 days. Inhibition was assessed using an enzyme-linked immunosorbent assay (ELISA) of viral core protein p24 antigen.

The test system of assay [5] is WHO isolate Clade D (X4) pseudovirus. In words: Viral entry, Env pseudovirus with luciferase readout: WHO isolate Clade D. The assay is classed as cell-based, HIV-1. Conditions: from IC50 data of table 3. As to the method: as §1
Assay [6] deals with HIV-1 IIIB gp41 (HIV-1 IIIB). The assay can be described thus: cell-based or functional assay.
Assay [7] relates to HL2/3 cells expressing HIV-1IIIB Env fusing with MAGI-CCR5 cells. In kind it is cell-based. Conditions: MAGI-CCR5 / HL2/3; read-out: IC50 cell fusion assay. As to the method: A second panel of anti-HIV-1 peptides according to the invention was evaluated for using the MAGI-CCR5 antiviral assay and a gene reporter cell fusion assay. MAGI-CCR5 is an HIV-1 indicator cell line derived from HeLa cells that express CD4 and the HIV-1 coreceptors CCR5 and CXCR4. These cells contain a gene reporter cassette of β-galactosidase that is expressed from an HIV-1 LTR. Expression of the reporter gene is dependent on the production of HIV-1 tat that occurs following HIV-1 entry. The read-out for viral infectivity after two days of incubation is measurement of β-galactosidase expression detectable by chemoluminescence. The assay structure in the 96 well format as that used in the PBMC assay. The cell fusion assay uses the same indicator cell line (MAGI-CCR5), which is incubated with a HeLa cell based cell line HL2/3 that expresses HIV-1IIIB Env on its surface and contains Tat and Rev expression cassettes. When HL2/3 cells fuse with the MAGI-CCR5 cells, HIV-1 Tat is delivered into the indicator cells leading to activation of the β-galactosidase gene which is under the control of the HIV-1 LTR. The enzyme activity is read out in a similar fashion by chemoluminescence using the same assay structure as mentioned above. This assay is uniquely sensitive to entry inhibitors. […]

Values after ≈ are worked out from the molar mass of the structure shown.

In the case of `CC[C@H](C)[C@H](NC(=O)[C@H](CC(C)C)NC(=O)[C@H](CO)NC(=O)[C@H](Cc1ccc(O)cc1)NC(=O)[C@@H](NC(=O)[C@H](CC(C)C)NC(=O)[C@H](CO)NC(=O)[C@@H](NC(=O)[C@H](Cc1ccc(O)cc1)NC(=O)[C@H](CC(N)=O)NC(=O)[C@H](CC(=O)O)NC(=O)[C@@H](NC(=O)[C@H](CCC(=O)O)NC(=O)[C@H](CCCNC(=N)N)NC(=O)[C@H](CCC(=O)O)NC(=O)[C@H](Cc1c[nH]c2ccccc12)NC(=O)[C@H](CCC(=O)O)NC(=O)[C@H](CCSC)NC(=O)[C@H](Cc1c[nH]c2ccccc12)NC(=O)[C@@H](NC(=O)[C@H](CCSC)NC(=O)[C@H](CC(N)=O)NC(=O)[C@@H](N)CC(N)=O)[C@@H](C)O)[C@@H](C)CC)[C@@H](C)O)[C@@H](C)CC)C(=O)N[C@@H](CCC(=O)O)C(=O)N[C@@H](CCC(=O)O)C(=O)N[C@@H](CO)C(=O)N[C@@H](CCC(N)=O)C(=O)N[C@@H](CC(N)=O)C(=O)N[C@@H](CCC(N)=O)C(=O)N[C@@H](CCC(N)=O)C(=O)N[C@@H](CCC(=O)O)C(=O)N[C@@H](CCCCN)C(=O)N[C@@H](CC(N)=O)C(=O)N[C@@H](CCC(=O)O)C(=O)N[C@@H](CCC(N)=O)C(=O)N[C@@H](CCC(=O)O)C(=O)O` [Peptide N36E], the “fold more active than Y36F, W61D pseudovirus” value in assay [1] amounted to 18 fold. The “fold more active than Y36F, JRFL pseudovirus” value in the assay on JRFL (R5) pseudovirus is listed as 80 fold. Also, the “inhibition, peptide preincubated with target cells then washed prior to addition of virus” value with HIV-1 pseudovirus (cells washed before virus) was “no inhibitory effect”. Further, the “inhibition, virus preincubated with cells for 1 h prior to addition of peptide” value in the assay with HIV-1 pseudovirus (peptide added 1 h after virus and cells) is listed as “complete absence of inhibition”. In the assay with HIV-1 pseudovirus (simultaneous addition), the “inhibitory effect, simultaneous mixing of virus, cells and peptide” value is reported as “most pronounced inhibitory effect”. Also, the “inhibition, virus preincubated with peptide 1 h at 37° C. then washed by ultrafiltration prior to addition to cells” value in the assay on HIV-1 pseudovirus (virus washed before cells) is on record as “weak but poorly reproducible inhibition”. Further, in the assay with HIV-1 [2], the “activity compared with T20 and T1249” value is “compare well to both T20 and to T1249”; the concentration for half-maximal inhibition (IC50) – broadly, the midpoint of a concentration-inhibition curve – was determined as 2 ± 1 nM. The “fold more active than Y36F, HXB2 pseudovirus” value in assay [3] is 5 fold. Also, in the assay on HIV-1 [4], the “fold more potent than analogues Y36F, K42K and E30E, frequently” value was 10 fold; the “activity compared with the new analogues of T-20, T-21 and DP219” value (“activity compared with the new analogues” for short) is “significantly greater potency”.

For the molecule `CC[C@H](C)[C@H](NC(=O)[C@H](CCC(=O)O)NC(=O)[C@H](CCCNC(=N)N)NC(=O)[C@H](CCC(=O)O)NC(=O)[C@H](Cc1c[nH]c2ccccc12)NC(=O)[C@H](CCC(=O)O)NC(=O)[C@H](CCSC)NC(=O)[C@H](Cc1c[nH]c2ccccc12)NC(=O)[C@@H](NC(=O)[C@H](CCSC)NC(=O)[C@H](CC(N)=O)NC(=O)[C@H](CC(N)=O)NC(=O)[C@@H](N)Cc1c[nH]c2ccccc12)[C@@H](C)O)C(=O)N[C@@H](CC(=O)O)C(=O)N[C@@H](CC(N)=O)C(=O)N[C@@H](Cc1ccc(O)cc1)C(=O)N[C@H](C(=O)N[C@@H](CO)C(=O)N[C@@H](CC(C)C)C(=O)O)[C@@H](C)O` [Peptide W19L], in the assay on HIV-1 IIIB, the “MIC HIV-1IIIB infectivity” value amounted to 0.06 µg/mL (≈ 0.0238 µM).

In the case of `CC[C@H](C)[C@H](NC(=O)[C@H](CC(C)C)NC(=O)[C@H](CO)NC(=O)[C@H](Cc1ccc(O)cc1)NC(=O)[C@@H](NC(=O)[C@H](CC(C)C)NC(=O)[C@H](CO)NC(=O)[C@@H](NC(=O)[C@H](Cc1ccc(O)cc1)NC(=O)[C@H](CC(N)=O)NC(=O)[C@H](CC(=O)O)NC(=O)[C@@H](NC(=O)[C@H](CCC(=O)O)NC(=O)[C@H](CCCNC(=N)N)NC(=O)[C@H](CCC(=O)O)NC(=O)[C@H](Cc1c[nH]c2ccccc12)NC(=O)[C@H](CCC(=O)O)NC(=O)[C@H](CCSC)NC(=O)[C@H](Cc1c[nH]c2ccccc12)NC(=O)[C@@H](NC(=O)[C@H](CCSC)NC(=O)[C@H](CC(N)=O)NC(=O)[C@H](CC(N)=O)NC(=O)[C@H](Cc1c[nH]c2ccccc12)NC(=O)[C@@H](NC(=O)[C@H](CCC(N)=O)NC(=O)[C@H](CCC(=O)O)NC(=O)[C@H](CC(C)C)NC(=O)[C@H](CO)NC(=O)[C@H](CCCCN)NC(=O)[C@H](CC(N)=O)NC(=O)[C@H](CO)NC(=O)[C@@H](N)Cc1c[nH]c2ccccc12)[C@@H](C)CC)[C@@H](C)O)[C@@H](C)CC)[C@@H](C)O)[C@@H](C)CC)C(=O)N[C@@H](CCC(=O)O)C(=O)N[C@@H](CCC(=O)O)C(=O)N[C@@H](CO)C(=O)N[C@@H](CCC(N)=O)C(=O)O` [Peptide W37Q], the “fold more active than Y36F, W61D pseudovirus” value in [1] is reported as around 20 fold. Moreover, the “fold more active than Y36F, JRFL pseudovirus” value in the assay on JRFL (R5) pseudovirus was around 15 fold. Also, the “fold more active than Y36F, WHO D clade pseudovirus” value in [5] is given as “approximately 22 fold”. For the same molecule, in the assay with HIV-1 [2], the “activity compared with T20 and T1249” value was “compare well to both T20 and to T1249”; the 50% inhibitory concentration (IC50) is 5 ± 2 nM. Moreover, in the assay with HIV-1 [4], the “fold more potent than analogues Y36F, K42K and E30E, frequently” value stood at 10 fold; the “activity compared with the new analogues” value was “significantly greater potency”.

As for `CC[C@H](C)[C@H](NC(=O)[C@H](CC(C)C)NC(=O)[C@H](CO)NC(=O)[C@H](Cc1ccc(O)cc1)NC(=O)[C@@H](NC(=O)[C@H](CC(C)C)NC(=O)[C@H](CO)NC(=O)[C@@H](NC(=O)[C@H](Cc1ccc(O)cc1)NC(=O)[C@H](CC(N)=O)NC(=O)[C@H](CC(=O)O)NC(=O)[C@@H](NC(=O)[C@H](CCC(=O)O)NC(=O)[C@H](CCCNC(=N)N)NC(=O)[C@H](CCC(=O)O)NC(=O)[C@H](Cc1c[nH]c2ccccc12)NC(=O)[C@@H](N)CCC(=O)O)[C@@H](C)CC)[C@@H](C)O)[C@@H](C)CC)C(=O)N[C@@H](CCC(=O)O)C(=O)N[C@@H](CCC(=O)O)C(=O)N[C@@H](CO)C(=O)N[C@@H](CCC(N)=O)C(=O)N[C@@H](CC(N)=O)C(=O)N[C@@H](CCC(N)=O)C(=O)N[C@@H](CCC(N)=O)C(=O)N[C@@H](CCC(=O)O)C(=O)N[C@@H](CCCCN)C(=O)N[C@@H](CC(N)=O)C(=O)N[C@@H](CCC(=O)O)C(=O)N[C@@H](CCC(N)=O)C(=O)N[C@@H](CCC(=O)O)C(=O)O` [Synthesised DP219, reference compound], in the assay on HIV-1 IIIB, the “ID50% HIV-1IIIB infectivity” value turned out to be 6.00 µg/mL (≈ 1.6 µM) and the “ID90 HIV-1IIIB infectivity” value came to 12.5 µg/mL (≈ 3.34 µM).

In [6], Recombinant DP178 (peptide) came in with an ID50%, HIV-1IIIB infectivity of 0.05 µg/mL; an ID90, HIV-1IIIB infectivity of 0.09 µg/mL; an MIC, HIV-1IIIB infectivity of 0.009 µg/mL.

In [6], T20 (peptide) came in with an IC50, cell fusion assay (MAGI-CCR5 cells with HL2/3 cells expressing HIV-1IIIB Env) of 30 nM.

As for “WNASWSNKSLEQIWNNMTWMEWEREIDNYTSLIYSLI [Peptide W37I]”, the “activity compared with the new analogues” value in the assay with HIV-1 [4] is listed as “broadly similar levels of activity”.

In the case of enfuvirtide, the IC50 in assay [7] is around 30 nM.
